The data set is described as follows: in vitro. Format: in vitro ADME. The settings on record: human. The method, then: The bidirectional permeability of compounds across the Caco-2 cell monolayer was assessed. The Caco-2 model is a widely used in vitro model for small intestinal absorption and potential for efflux.
Cell culture. Caco-2 cells were grown in DMEM supplemented with 10% fetal bovine serum (FBS), 1% Penicillin-Streptomycin and 1% MEM NEAA. The cells were incubated at 37° C., 5% CO2/95% air and saturated humidity. After reaching 80-90% confluency, the cells were gently detached with trypsin. Cells at passage 39 were seeded on the 24-well BD insert system at the density of 8×10^4 cells/cm^2 and cultured for 19 days with medium changed every 2-3 days. Measure the transepithelial electrical resistance (TEER) value of each well. The wells can be used only when their TEER values are greater than 600 Ohms/cm^2.
Transport assay. After removing the cell culture medium from the 24-well insert plate, the cells were rinsed with warm transport buffer. Appropriate dosing and receiving solutions were applied to the donor and receiver chambers to initiate the transport assay in apical to basolateral (A to B) or basolateral to apical (B to A) directions ([…] for apical and basolateral wells, respectively). Duplicate wells in each direction were used for the test compound and control compound. The plate was incubated in CO2 incubator at 37° C., with 5% CO2/95% air and saturated humidity without shaking. The sample after 10-minute incubation was used as the T0 sample, and the sample after 90-minute incubation was used as the T90 sample. To and T90 samples were collected from the donor and receiver side of each well at the designed timepoint, mixed with the transport buffer and acetonitrile/MeOH (1:1, v/v) and the internal standard for LC/MS/MS analysis. All samples were vortexed and centrifuged at 4000 rpm at 4° C. for 15 minutes, diluted with pure water and stored at 4° C. before bioanalysis by LC/MS/MS.
Sample analysis. The concentrations of test compounds and control compounds in Caco-2 cells were quantitatively determined by LC/MS/MS method after protein precipitation.
Calculations. The apparent permeability (Papp, cm/s), efflux ratio (ER) and recovery parameters were calculated for Caco-2 drug transport assay using the following equations:
[formula] [formula] where VR is the solution volume in the receiver chamber (0.4 mL on the apical side, 1.2 mL on the basolateral side); Area is the surface area for the insert membrane, i.e., 0.3 cm^2 for the area of the monolayer; Time is incubation time, expressed in seconds, i.e., 5400 s (90 min) for the current experiment; Co is the initial concentration of test compound or peak area ratio of control compounds in the donor chamber (μM); VD is the volume in the donor chambers (0.4 mL on the apical side, 1.2 mL on the basolateral side); CD and CR are the final concentrations of test compounds or peak area ratio of control compounds in donor and receiver chambers, respectively.
Compounds with Papp<1.0 are classified as low permeability, Papp between 1-10 are classified as medium permeability, and Papp≥10 are classified as high permeability. An efflux ratio (ER)>2 indicates the compounds are potential substrates for intestinal cell efflux transporters.

Where [1] appears, read: Caco-2 monolayer, apical to basolateral, 90-minute incubation, read-out: Papp, A-B.
Setting [2] is: Caco-2 monolayer, basolateral to apical, 90-minute incubation, read-out: Papp, B-A.
Setting [3] is: Caco-2 monolayer, ER>2 indicates potential efflux transporter substrate, read-out: ER (efflux ratio).

The structures appear in SMILES notation. Where two headings read alike, the source gives them in different places.

As a reminder, the Papp A→B is how fast a substance crosses the layer from the apical side. The Papp B→A is how fast a substance crosses the layer from the basolateral side. Regarding `CNc1nc(N)nc2c1ncn2[C@@H]1O[C@H](COC(=O)C(C)C)[C@@H](O)[C@@]1(C)F` [Compound 3, ((2R,3R,4R,5R)-5-(2-amino-6-(methylamino)-9H-purin-9-yl)-4-fluoro-3-hydroxy-4-methyltetrahydrofuran-2-yl)methyl isobutyrate], under “Caco-2”, the Papp A→B at 90 min worked out at 1.8 ×10⁻⁶ cm/s, the basolateral-to-apical permeability (Papp B→A) at 90 min amounted to 3.5 ×10⁻⁶ cm/s and the efflux ratio at 90 min is 2.
The like results for `N#C[C@@]1(c2ccc3c(N)ncnn23)O[C@H](COP(=O)(O)OCCCCCCCCCCCCCCCC(=O)O)[C@@H](O)[C@H]1O` [Compound 8, 16-(((((2R,3S,4R,5R)-5-(4-aminopyrrolo[2,1-f][1,2,4]triazin-7-yl)-5-cyano-3,4-dihydroxytetrahydrofuran-2-yl)methoxy)(hydroxy)phosphoryl)oxy)hexadecanoic acid] were, in that order, 0.2 ×10⁻⁶ cm/s, 0.5 ×10⁻⁶ cm/s and 2.4.
`CC(C)CC(=O)OC[C@H]1O[C@@](C#N)(c2ccc3c(N)ncnn23)[C@H](O)[C@@H]1O` [Compound 9, ((2R,3S,4R,5R)-5-(4-aminopyrrolo[2,1-f][1,2,4]triazin-7-yl)-5-cyano-3,4-dihydroxytetrahydrofuran-2-yl)methyl 3-methylbutanoate]: under “Caco-2”, the Papp A→B at 90 min was 3 ×10⁻⁶ cm/s, the apparent permeability from basolateral to apical (Papp B→A) at 90 min amounted to 4.7 ×10⁻⁶ cm/s and the efflux ratio at 90 min stood at 1.6.
The like results for `N#C[C@@]1(c2ccc3c(N)ncnn23)O[C@H](COC(=O)CC2CCCCC2)[C@@H](O)[C@H]1O` [Compound 10, ((2R,3S,4R,5R)-5-(4-aminopyrrolo[2,1-f][1,2,4]triazin-7-yl)-5-cyano-3,4-dihydroxytetrahydrofuran-2-yl)methyl 2-cyclohexylacetate] were, in that order, 3 ×10⁻⁶ cm/s, 4.7 ×10⁻⁶ cm/s and 1.6.
With `CC(C)[C@H](N)C(=O)OC[C@H]1O[C@@](C#N)(c2ccc3c(N)ncnn23)[C@H](O)[C@@H]1O` [Compound 11, ((2R,3S,4R,5R)-5-(4-aminopyrrolo[2,1-f][1,2,4]triazin-7-yl)-5-cyano-3,4-dihydroxytetrahydrofuran-2-yl)methyl L-valinate], where the note is “Caco-2”, the Papp A→B at 90 min is 0.4 ×10⁻⁶ cm/s, the apparent permeability from basolateral to apical (Papp B→A) at 90 min was determined as 0.1 ×10⁻⁶ cm/s and the efflux ratio at 90 min is 0.4.
As for `N#C[C@@]1(c2ccc3c(N)ncnn23)O[C@H](COC(=O)Cc2ccccc2)[C@@H](O)[C@H]1O` [Compound 12, ((2R,3S,4R,5R)-5-(4-aminopyrrolo[2,1-f][1,2,4]triazin-7-yl)-5-cyano-3,4-dihydroxytetrahydrofuran-2-yl)methyl 2-phenylacetate], the apical-to-basolateral permeability (Papp A→B) at 90 min under setting [1] stood at 3 ×10⁻⁶ cm/s. In addition, the basolateral-to-apical permeability (Papp B→A) at 90 min under setting [2] was 8.9 ×10⁻⁶ cm/s. The efflux ratio at 90 min under setting [3] worked out at 3.
Turning to `CC(=O)OC[C@H]1O[C@@](C#N)(c2ccc3c(N)ncnn23)[C@H](O)[C@@H]1O` [Compound 13, ((2R,3S,4R,5R)-5-(4-aminopyrrolo[2,1-f][1,2,4]triazin-7-yl)-5-cyano-3,4-dihydroxytetrahydrofuran-2-yl)methyl acetate], under “Caco-2”, the apical-to-basolateral permeability (Papp A→B) at 90 min was 0.2 ×10⁻⁶ cm/s, the apparent permeability from basolateral to apical (Papp B→A) at 90 min was found to be 0.6 ×10⁻⁶ cm/s and the efflux ratio at 90 min amounted to 2.7.
For the compound `CC(C)C(=O)OC[C@H]1O[C@@](C#N)(c2ccc3c(N)ncnn23)[C@H](O)[C@@H]1O` [Compound 14, ((2R,3S,4R,5R)-5-(4-aminopyrrolo[2,1-f][1,2,4]triazin-7-yl)-5-cyano-3,4-dihydroxytetrahydrofuran-2-yl)methyl isobutyrate], for the setting “Caco-2”, the Papp A→B at 90 min amounted to 2.3 ×10⁻⁶ cm/s, the Papp B→A at 90 min amounted to 2.2 ×10⁻⁶ cm/s and the efflux ratio at 90 min was 1.
`CCC(=O)OC[C@H]1O[C@@](C#N)(c2ccc3c(N)ncnn23)[C@H](O)[C@@H]1O` [Compound 15, ((2R,3S,4R,5R)-5-(4-aminopyrrolo[2,1-f][1,2,4]triazin-7-yl)-5-cyano-3,4-dihydroxytetrahydrofuran-2-yl)methyl propionate]: the Papp A→B at 90 min under setting [1] was determined as 2.9 ×10⁻⁶ cm/s. The Papp B→A at 90 min under setting [2] is 7 ×10⁻⁶ cm/s. Under setting [3], the efflux ratio at 90 min worked out at 3.4.
Turning to `CC(C)CC(=O)OC[C@H]1O[C@@](C#N)(c2ccc3c(N)ncnn23)[C@H](O)[C@@H]1OC(=O)CC(C)C` [Compound 17, (2R,3S,4R,5R)-5-(4-aminopyrrolo[2,1-f][1,2,4]triazin-7-yl)-5-cyano-4-hydroxy-2-(((3-methylbutanoyl)oxy)methyl)tetrahydro furan-3-yl 3-methylbutanoate], for the setting “Caco-2”, the Papp A→B at 90 min stood at 15 ×10⁻⁶ cm/s, the Papp B→A at 90 min is 21 ×10⁻⁶ cm/s and the efflux ratio at 90 min came out at 1.4.
The like results for `CC(C)CC(=O)OC[C@H]1O[C@@](C#N)(c2ccc3c(N)ncnn23)[C@H](O)[C@@H]1OC(=O)CC1CCCCC1` [Compound 18, ((2R,3S,4R,5R)-5-(4-aminopyrrolo[2,1-f][1,2,4]triazin-7-yl)-5-cyano-3-(2-cyclohexylacetoxy)-4-hydroxytetrahydrofuran-2-yl)methyl 3-methylbutanoate] were, in that order, 16 ×10⁻⁶ cm/s, 8.8 ×10⁻⁶ cm/s and 0.6.
`CC(C)CC(=O)OC[C@H]1O[C@@](C#N)(c2ccc3c(N)ncnn23)[C@H](O)[C@@H]1OC(=O)Cc1ccccc1` [Compound 20, ((2R,3S,4R,5R)-5-(4-aminopyrrolo[2,1-f][1,2,4]triazin-7-yl)-5-cyano-4-hydroxy-3-(2-phenylacetoxy)tetrahydrofuran-2-yl)methyl 3-methylbutanoate]: the Papp A→B at 90 min under setting [1] is 10 ×10⁻⁶ cm/s. Moreover, the Papp B→A at 90 min under setting [2] worked out at 9.8 ×10⁻⁶ cm/s. For the same compound, the efflux ratio at 90 min under setting [3] came out at 1.
Turning to `CC(C)CC(=O)OC[C@H]1O[C@@](C#N)(c2ccc3c(N)ncnn23)[C@H](O)[C@@H]1OC(=O)C(C)C` [Compound 22, ((2R,3S,4R,5R)-5-(4-aminopyrrolo[2,1-f][1,2,4]triazin-7-yl)-5-cyano-4-hydroxy-3-(isobutyryloxy)tetrahydrofuran-2-yl)methyl 3-methylbutanoate], under “Caco-2”, the Papp A→B at 90 min was determined as 7 ×10⁻⁶ cm/s, the Papp B→A at 90 min is 10 ×10⁻⁶ cm/s and the efflux ratio at 90 min is 1.5.
The like results for `CCC(=O)O[C@H]1[C@@H](O)[C@](C#N)(c2ccc3c(N)ncnn23)O[C@@H]1COC(=O)CC(C)C` [Compound 23, ((2R,3S,4R,5R)-5-(4-aminopyrrolo[2,1-f][1,2,4]triazin-7-yl)-5-cyano-4-hydroxy-3-(propionyloxy)tetrahydrofuran-2-yl)methyl 3-methylbutanoate] were, in that order, 6.3 ×10⁻⁶ cm/s, 8.1 ×10⁻⁶ cm/s and 1.3.
The like results for `CC(C)CC(=O)OC[C@H]1O[C@@](C#N)(c2ccc3c(N)ncnn23)[C@H](O)[C@@H]1OCOC(=O)C(C)(C)C` [Compound 24, ((2R,3S,4R,5R)-5-(4-aminopyrrolo[2,1-f][1,2,4]triazin-7-yl)-5-cyano-4-hydroxy-3-((pivaloyloxy)methoxy)tetrahydrofuran-2-yl)methyl 3-methylbutanoate] were, in that order, 8.1 ×10⁻⁶ cm/s, 3.6 ×10⁻⁶ cm/s and 0.44.
For the compound `CC(C)CC(=O)O[C@H]1[C@@H](O)[C@](C#N)(c2ccc3c(N)ncnn23)O[C@@H]1COC(=O)CC1CCCCC1` [Compound 25, (2R,3S,4R,5R)-5-(4-aminopyrrolo[2,1-f][1,2,4]triazin-7-yl)-5-cyano-2-((2-cyclohexylacetoxy)methyl)-4-hydroxytetrahydrofuran-3-yl 3-methylbutanoate], where the note is “Caco-2”, the apparent permeability from apical to basolateral (Papp A→B) at 90 min was found to be 56 ×10⁻⁶ cm/s, the apparent permeability from basolateral to apical (Papp B→A) at 90 min stood at 42 ×10⁻⁶ cm/s and the efflux ratio at 90 min came out at 0.7.
The like results for `CC(C)[C@H](N)C(=O)O[C@H]1[C@@H](O)[C@](C#N)(c2ccc3c(N)ncnn23)O[C@@H]1COC(=O)CC1CCCCC1` [Compound 27, (2R,3S,4R,5R)-5-{4-aminopyrrolo[2,1-f][1,2,4]triazin-7-yl}-5-cyano-2-{[(2-cyclohexylacetyl)oxy]methyl}-4-hydroxyoxolan-3-yl (2S)-2-amino-3-methylbutanoate] were, in that order, 0.1 ×10⁻⁶ cm/s, 9.9 ×10⁻⁶ cm/s and 100.

(Values after patent US12102648B2, “Orally-bioavailable nucleoside analogs” (priority 2021, dated 2024).)
